The values that follow come from PMC9774438, “Effects of Synthetic Short Cationic Antimicrobial Peptides on the Catalytic Activity of Myeloperoxidase, Reducing Its Oxidative Capacity” (Antioxidants, 2022).

In assay [1] the target is T1, myeloperoxidase (MPO) (Homo sapiens, UniProt P05164).
T1 construct: Native myeloperoxidase (MPO) was obtained from human leukocyte extract by successive chromatography on heparin-Sepharose and phenyl-agarose; from tissue; host or cells: human leukocyte extract
The assay is described as follows: MPO peroxidase activity (Amplex Red assay). The class given is biochemical. The conditions noted are these: for IC50: 50 μM Amplex Red, 25 μM H2O2, 50 mM K-phosphate pH 7.4, 5 min preincubation; for Ki: 20 μM pept_1545 or 2 μM Hm-AMP8, 50 mM K-phosphate pH 7.4, Hanes–Woolf. How it is done:
MPO peroxidase activity was evaluated fluorometrically using Amplex Red^TM reagent which was oxidized by MPO to the fluorescent resorufin (λex = 530 nm, λem = 590 nm). The assay was performed in 96-plate format. The final reaction mixture in 50 mM K-phosphate buffer (pH 7.4) was as follows: MPO, 8 nM heme; peptide, […]; H2O2, 25 μM; Amplex Red reagent, 50 μM. MPO was preincubated with peptides for 5 min in a volume of 100 μl. Then, Amplex Red was added, and the enzymatic reaction was initiated by adding H2O2 (a final probe volume of 200 μL per well). The fluorescence measurement was made with a CLARIOstar multimodal plate reader (BMG Labtech, Ortenberg, Germany) at 5 min after the beginning of the reaction. To determine the type of CAMP-induced inhibition, KM and Vmax were obtained by varying substrates of MPO: Amplex Red in a final concentration from 1 to 62.5 μM, or H2O2 in a final concentration from 0.625 to 20 μM.
(§1) The Hannes-Wolf plots were made as ([Substrate]/V = f([Substrate]). KM was equal in magnitude to the intercept made on the abscissa axis by the approximating straight line; Vmax was calculated as a reciprocal value of the straight-line slope. The inhibition constant (Ki) for noncompetitive inhibition was calculated as follows: Ki = [I]/((Vmax − Vmax’)/Vmax’); Ki for competitive inhibition was calculated as follows: Ki = [I]/((KM’ − KM)/KM); Ki for mixed inhibition was calculated as follows: Ki = [I]/(((KM’ − KM)/KM)^2 + ((Vmax − Vmax’)/Vmax’))^2)^0.5; and Ki for uncompetitive inhibition was calculated as follows: Ki = [I]/(((KM − KM’)/KM’)^2 + ((Vmax – Vmax’)/Vmax’))^2)^0.5, where [I]—concentration of inhibitor (CAMP), KM—Michaelis constant without inhibitor, Vmax—maximal rate without inhibitor, KM’—Michaelis constant in the presence of inhibitor, Vmax’—maximal rate in the presence of inhibitor.
From the experiments with varying concentrations of H2O2 (0.01–200 μM) and Amplex Red (6.25–100 μM), the optimal concentrations of 25 μM H2O2 and 50 μM Amplex Red were chosen for further work. The 0.8–50 μM concentration range (corresponding to 100–6250 peptide molecules per heme) was used to determine the concentration dependence of the effect of CAMPs on peroxidase activity of MPO.

For assay [2], the target named is T1, myeloperoxidase (MPO). The assay is described as follows: MPO chlorinating activity (Celestine Blue B assay). The class given is biochemical. The note with it: for IC50: 0.8 nM MPO heme, 200 μM CB, 150 mM NaCl, 50 μM H2O2, 50 mM Na-acetate pH 5.5, 5 min preincubation. How it is done: MPO chlorinating activity was evaluated fluorometrically using Celestine Blue B (CB) which was oxidized to fluorescent glycol (λex = 487 nm, λem = 578 nm) by taurine N-chloramine produced in the reaction of taurine with HOCl generated by MPO [39]. The assay was performed in 96-plate format. MPO was preincubated with peptides for 5 min in a volume of 100 μL, with the concentrations being: MPO, 1.6 nM heme and peptide, 16 nM–16 μM. Then, 100 μL aliquots of CB-containing mix (CB, 400 µM; H2O2, 100 µM; taurine, 4 mM; KI, 10 µM; NaCl, 300 mM; 50 mM Na-acetate buffer, pH 5.5) were added to MPO/peptide and to 100 μL of HOCl standards (0–150 μM). The fluorescence measurement was made with a CLARIOstar multimodal plate reader (BMG Labtech, Ortenberg, Germany) at 15 min after the reaction started. Fluorescence intensity detected for HOCl standards of HOCl was used for calculating the chlorinating activity as mole of HOCl per mole of MPO heme per second. To determine the type of CAMP-induced inhibition, KM and Vmax were obtained by varying substrates of MPO: NaCl in a final concentration from 25 to 300 mM, or H2O2 in a final concentration from 5 to 80 µM.
as §1
Chlorinating activity is a distinctive feature of MPO as compared with other peroxidases and it is an important property, enabling MPO to combat microbes. We tested whether the inhibitory effects of pept_1545 and Hm-AMP8 on peroxidase activity extend to MPO chlorinating activity. Chlorinating activity was measured using a fluorometric CB-based assay. To determine the concentration dependence of the effect of CAMPs on MPO chlorinating activity, the 0.008–8 μM concentration range (corresponding to 10–10,000 peptide molecules per heme) was used.

For assay [3], the target named is T1, myeloperoxidase (MPO). As to the kind of experiment: Measurement of sulfhydryl groups with MPO/H2O2 (DTNB). The note with it: for free sulfhydryl groups, percentage relative to CAMP + MPO without H2O2: 150 μM peptide, 1 μM MPO heme, 100 μM H2O2, 10 mM Na-phosphate pH 7.4, mean ± SD, * p < 0.05 where marked. The class given is biochemical. As to the method: The peroxidase reaction was carried out in 10 mM Na-phosphate buffer, pH 7.4 (containing 0.2 mM DTPA), in a volume of 60 μl placed in the wells of a 96-well plate. Peptides were added to MPO (1 μM heme) to a concentration of 150 μM. Following 5 min of incubation, H2O2 (100 μM, final) was added to test samples to trigger the reaction. Control samples were the same except H2O2. The content of free sulfhydryl groups was estimated spectrophotometrically by using 5,5′-dithiobis(2-nitrobenzoic acid) (DTNB, Ellman’s reagent) prepared in 0.4 M Tris-HCl buffer, pH 9.0. At a desired time after the reaction was started, 120 μL aliquots of freshly prepared DTNB-containing buffer were added to one part of samples (160 μM DTNB, final) and […] of the buffer without DTNB was added to another part of the same samples. […] Absorbance in the absence of DTNB was subtracted from that in the presence of DTNB. The loss of sulfhydryl groups was expressed as a percentage relative to controls incubated without H2O2.
To determine an estimation of whether the cysteine residue of pept_1545 and Hm-AMP8 participated in MPO-mediated reactions, we compared the content of free sulfhydryl groups in the reaction mixtures of peptides (150 μM) with the MPO/H2O2 system (1 μM heme, 100 μM H2O2) and control samples containing peptides plus MPO with no added H2O2. Measurements of sulfhydryl groups were made at 5 min and 90 min of incubation (Table 2).

Assay [4] concerns MPO. The note with it: cited from earlier work; for peroxidase substrate behaviour of free amino acid: literature statement. The text has this: Free tyrosine is known to be a peroxidase substrate, reacting rapidly with both Compounds I and II. […] MPO-catalyzed oxidation of tyrosine occurs in the absence as well as presence of chloride, which is accompanied by hastened HOCl production. […] In addition to cysteine, pept_1545 contains tryptophan, another redox active amino acid. […] Fluorescence measurements (λex = 290 nm, λem = 310–450 nm) were ...

In assay [5] the test system is MPO. The conditions noted are these: MPO/H2O2 system; ref [57]; cited from earlier work.
Setting [6] is: 0.625–20 μM H2O2, 50 μM Amplex Red, 8 nM MPO heme, read-out: Inhibition constant (Ki) towards H2O2, peroxidase activity.
Where [7] appears, read: 1–62.5 μM Amplex Red, 25 μM H2O2, 8 nM MPO heme, read-out: Inhibition constant (Ki) towards Amplex Red.
Setting [8] is: 8 μM pept_1545 or 0.8 μM Hm-AMP8, 25–300 mM NaCl, 50 μM H2O2, 0.8 nM MPO, 50 mM Na-acetate pH 5.5, Hanes–Woolf, read-out: Inhibition constant (Ki) towards Cl−.
Where [9] appears, read: Ki towards H2O2 and Cl– (abstract, range over both substrates), chlorinating activity, pH 5.5.

Where “and” joins values, the source holds several entries; their conditions need not be identical. Equal values may be shown once. Read-outs that look alike come from different tables or passages of the source. Where a SMILES comes first, the peptide text is derived from it.

T1 sequence (P05164 279-745 limits assumed): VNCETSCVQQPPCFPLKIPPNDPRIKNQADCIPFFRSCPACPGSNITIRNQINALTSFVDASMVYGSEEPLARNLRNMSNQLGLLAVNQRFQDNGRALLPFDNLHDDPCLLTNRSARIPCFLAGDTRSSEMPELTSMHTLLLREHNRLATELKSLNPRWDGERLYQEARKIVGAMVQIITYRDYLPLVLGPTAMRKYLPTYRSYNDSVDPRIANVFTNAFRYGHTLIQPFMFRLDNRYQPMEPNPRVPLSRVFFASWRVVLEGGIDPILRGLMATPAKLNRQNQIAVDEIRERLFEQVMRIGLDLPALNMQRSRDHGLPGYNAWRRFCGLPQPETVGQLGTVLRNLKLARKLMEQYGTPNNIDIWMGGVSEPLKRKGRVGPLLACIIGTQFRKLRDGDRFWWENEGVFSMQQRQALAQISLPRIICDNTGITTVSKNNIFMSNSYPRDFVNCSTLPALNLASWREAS
T1 sequence (P05164 165-273 limits assumed): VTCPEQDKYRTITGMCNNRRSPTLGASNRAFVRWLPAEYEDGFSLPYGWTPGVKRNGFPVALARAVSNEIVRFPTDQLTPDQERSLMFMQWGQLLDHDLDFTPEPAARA

In the case of `CC[C@H](C)[C@H](NC(=O)[C@H](C)NC(=O)[C@H](CC(N)=O)NC(=O)[C@H](Cc1ccc(O)cc1)NC(=O)[C@@H]1CCCN1C(=O)[C@@H](NC(=O)[C@H](CCCCN)NC(=O)[C@H](Cc1ccc(O)cc1)NC(=O)[C@@H](NC(=O)[C@@H](NC(=O)[C@H](C)NC(=O)[C@@H](N)CCCNC(=N)N)C(C)C)[C@@H](C)CC)[C@@H](C)CC)C(=O)N[C@@H](C)C(=O)N[C@@H](CO)C(=O)N[C@@H](CCCNC(=N)N)C(=O)N[C@@H](Cc1c[nH]c2ccccc12)C(=O)N[C@H](C(=O)N[C@H](C(=O)N[C@@H](C)C(=O)N1CCC[C@H]1C(=O)N[C@@H](CCCCN)C(=O)N[C@@H](CCCCN)C(=O)N[C@@H](CS)C(N)=O)[C@@H](C)CC)[C@@H](C)CC` [Hm-AMP8] (H-RAVIYKIPYNAIASRWIIAPKKC-NH2), the IC50 was 1.7 µM and 2 µM at myeloperoxidase (MPO) [1] (8 nM MPO heme); 0.3 µM at myeloperoxidase (MPO) [2]. The Ki is 1.79 µM on myeloperoxidase (MPO) [1] (setting [6]); 1.1 µM on myeloperoxidase (MPO) [1] (setting [7]); 0.28 µM on myeloperoxidase (MPO) [2] (8 μM pept_1545 or 0.8 μM Hm-AMP8, 5–80 μM H2O2, 150 mM NaCl, 0.8 nM MPO, 50 mM Na-acetate pH 5.5, Hanes–Woolf, read-out: Inhibition constant (Ki) towards H2O2, chlorinating activity); 0.42 µM at myeloperoxidase (MPO) [2] (setting [8]); 0.3 to 0.4 µM on myeloperoxidase (MPO) [2] (setting [9]). In addition, the results for the “free sulfhydryl groups, percentage relative to CAMP + MPO without H2O2” value at myeloperoxidase (MPO) [3] (5 min incubation) and on myeloperoxidase (MPO) [3] (90 min incubation) were 93 ± 5% and “* 79 ± 6%”, respectively.
On to `N[C@@H](CS)C(=O)O` [cysteine], for which, in the assay on MPO [4] (free cysteine, ref [50]), the “bimolecular rate constant for reaction with Compound I” value is 4100 M⁻¹ s⁻¹ and the “bimolecular rate constant for reaction with Compound II” value was < 10 M⁻¹ s⁻¹. In addition, the “peroxidase substrate behaviour of free amino acid” value with MPO [4] is “poor peroxidase substrate”.
As for `CC[C@H](C)[C@H](NC(=O)[C@H](C)NC(=O)[C@H](CCCCN)NC(=O)CNC(=O)[C@@H](NC(=O)[C@H](CC(C)C)NC(=O)[C@@H](N)Cc1ccccc1)[C@@H](C)CC)C(=O)N[C@@H](CCCCN)C(=O)N[C@@H](CCCNC(=N)N)C(=O)N[C@@H](CCCCN)C(=O)N[C@@H](Cc1ccccc1)C(=O)N[C@@H](CS)C(=O)N[C@@H](CC(C)C)C(=O)N[C@@H](CCCNC(=N)N)C(=O)N[C@@H](CO)C(=O)N[C@H](C(=O)N[C@@H](Cc1c[nH]c2ccccc12)C(=O)N[C@@H](CC(N)=O)C(=O)N[C@@H](C)C(N)=O)C(C)C` [pept_1545] (H-FLIGKAIKRKFCLRSVWNA-NH2), the figures for the IC50 against myeloperoxidase (MPO) [1] (8 nM MPO heme) and against myeloperoxidase (MPO) [2] were 11.2 µM and 7.4 µM, respectively. Further, the Ki was 52.8 µM at myeloperoxidase (MPO) [1] (setting [6]), 48.3 µM on myeloperoxidase (MPO) [1] (setting [7]), 19.5 µM at myeloperoxidase (MPO) [2] (setting [8]) and 11 to 20 µM on myeloperoxidase (MPO) [2] (setting [9]). Moreover, the “decrease in amount of –SH groups” value at myeloperoxidase (MPO) [3] (5 min incubation with MPO/H2O2) is “about 20%”. The “free sulfhydryl groups, percentage relative to CAMP + MPO without H2O2” value at myeloperoxidase (MPO) [3] (5 min incubation) is reported as “* 80 ± 4%”; at myeloperoxidase (MPO) [3] (90 min incubation), “* 76 ± 5%”.
Consider `N[C@@H](Cc1c[nH]c2ccccc12)C(=O)O` [tryptophan], for which, in the assay with MPO [4], the “peroxidase substrate behaviour of free amino acid” value was “poor peroxidase substrate”.
For `N[C@@H](Cc1ccc(O)cc1)C(=O)O` [tyrosine], in the assay with MPO [4] (free tyrosine, ref [42]), the “bimolecular rate constant for reaction with Compound I” value is 770000 M⁻¹ s⁻¹ and the “bimolecular rate constant for reaction with Compound II” value was 16000 M⁻¹ s⁻¹. In addition, in the assay with MPO [4], the “peroxidase substrate behaviour of free amino acid” value is reported as “accelerates MPO turnover”.
Take “N-acetyl lysyltyrosylcysteine amide [KYC]”: in the assay on MPO [5], the formation of dityrosine entry is on record as “formation of dityrosine only by KYS”; the “oxidation of tyrosine residues by MPO” value was “MPO oxidized tyrosine residues in both KYC and KYS”.
As for N-acetyl lysyltyrosylserine amide [KYS], in the assay with MPO [5], the formation of dityrosine entry is given as “formation of dityrosine only by KYS”; the “oxidation of tyrosine residues by MPO” value is “MPO oxidized tyrosine residues in both KYC and KYS”.
